Structures can show the parent of a compound that is named as a salt. Each block holds one compound with its values, some of them ahead of it. The source made the active and inactive calls. No cut-off for these calls is given here.
Assays:
MCF7 = assay: Cytotoxicity against human MCF7 cells incubated for 48 hrs by MTT assay; assay type: functional, cell-based; conditions: MCF7, 48 h
A549 [1] = assay: Cytotoxicity against human A549 cells incubated for 48 hrs by MTT assay; assay type: functional, cell-based; conditions: A549, 48 h
KB = assay: Cytotoxicity against human KB cells incubated for 48 hrs by MTT assay; assay type: functional, cell-based
A549 [2] = assay: Induction of cell cycle arrest in human A549 cells assessed as accumulation at G0/G1 phase at 5 uM incubated for 24 hrs by flow cytometry (reference value: 55.79%); assay type: functional
A549 [3] = assay: Induction of cell cycle arrest in human A549 cells assessed as accumulation at S phase at 5 uM incubated for 24 hrs by flow cytometry (reference value: 33.65%); assay type: functional
A549 [4] = assay: Induction of cell cycle arrest in human A549 cells assessed as accumulation at G0/G1 phase at 2.5 uM incubated for 24 hrs by flow cytometry (reference value: 55.79%); assay type: functional
A549 [5] = assay: Induction of apoptosis in human A549 cells after 24 hrs by Annexin-V-FITC/propidium iodide staining based flow cytometric method; assay type: functional, cell-based
A549 [6] = assay: induction of morphological changes in human A549 cells assessed as cell shrinkage at 1.25 to 5 uM incubated for 24 hrs by DAPI-staining based microscopic method; assay type: functional
A549 [7] = assay: Induction of DNA damage in human A549 cells assessed as gammaH2AX accumulation incubated for 24 hrs by DAPI staining based Immunofluorescence method; assay type: functional, cell-based
A549 [8] = assay: Induction of apoptosis in human A549 cells assessed as necrotic cells at 5 uM after 24 hrs by Annexin-V-FITC/propidium iodide staining based flow cytometric method (reference value: 1.12%); assay type: functional
A549 [9] = assay: Induction of cell cycle arrest in human A549 cells assessed as accumulation at G2/M phase at 13.6 uM incubated for 24 hrs by flow cytometry (reference value: 10.38%); assay type: functional
A549 [10] = assay: Induction of apoptosis in human A549 cells assessed as necrotic cells at 2.5 uM after 24 hrs by Annexin-V-FITC/propidium iodide staining based flow cytometric method (reference value: 1.12%); assay type: functional
A549 [11] = assay: Induction of apoptosis in human A549 cells assessed as necrotic cells at 13.6 uM after 24 hrs by Annexin-V-FITC/propidium iodide staining based flow cytometric method (reference value: 1.12%); assay type: functional
A549 [12] = assay: Induction of apoptosis in human A549 cells assessed as early apoptotic cells at 5 uM after 24 hrs by Annexin-V-FITC/propidium iodide staining based flow cytometric method (reference value: 0.56%); assay type: functional
A549 [13] = assay: Induction of cell cycle arrest in human A549 cells assessed as accumulation at S phase at 1.25 uM incubated for 24 hrs by flow cytometry (reference value: 33.65%); assay type: functional
A549 [14] = assay: Induction of cell cycle arrest in human A549 cells assessed as accumulation at G0/G1 phase at 1.25 uM incubated for 24 hrs by flow cytometry (reference value: 55.79%); assay type: functional
A549 [15] = assay: Induction of apoptosis in human A549 cells assessed as necrotic cells at 1.25 uM after 24 hrs by Annexin-V-FITC/propidium iodide staining based flow cytometric method (reference value: 1.12%); assay type: functional
A549 [16] = assay: Induction of ROS generation in human A549 cells assessed as increase in fluorescence intensity at 5 uM incubated for 24 hrs by DCFH-DA staining-based flow cytometric analysis relative to control; assay type: functional
A549 [17] = assay: Induction of apoptosis in human A549 cells assessed as late apoptotic cells at 2.5 uM after 24 hrs by Annexin-V-FITC/propidium iodide staining based flow cytometric method (reference value: 1.40%); assay type: functional
A549 [18] = assay: Induction of cell cycle arrest in human A549 cells assessed as accumulation at G0/G1 phase at 13.6 uM incubated for 24 hrs by flow cytometry (reference value: 55.79%); assay type: functional
A549 [19] = assay: Induction of cell cycle arrest in human A549 cells assessed as accumulation at G2/M phase at 1.25 uM incubated for 24 hrs by flow cytometry (reference value: 10.38%); assay type: functional
A549 [20] = assay: Induction of cell cycle arrest in human A549 cells assessed as accumulation at S phase at 2.5 uM incubated for 24 hrs by flow cytometry (reference value: 33.65%); assay type: functional
A549 [21] = assay: Induction of apoptosis in human A549 cells assessed as early apoptotic cells at 13.6 uM after 24 hrs by Annexin-V-FITC/propidium iodide staining based flow cytometric method (reference value: 0.56%); assay type: functional
[22] = target: DNA topoisomerase 2-alpha (Homo sapiens) (UniProt P11388); assay: Inhibition of human topoisomerase-2alpha expressed in baculovirus infected insect cells assessed as reduction in pBR322 DNA relaxation measured after 30 mins by ethidium bromide staining based agarose gel electrophoresis method relative to control
A549 [23] = assay: Induction of apoptosis in human A549 cells assessed as early apoptotic cells at 1.25 uM after 24 hrs by Annexin-V-FITC/propidium iodide staining based flow cytometric method (reference value: 0.56%); assay type: functional
A549 [24] = assay: Induction of apoptosis in human A549 cells assessed as late apoptotic cells at 13.6 uM after 24 hrs by Annexin-V-FITC/propidium iodide staining based flow cytometric method (reference value: 1.40%); assay type: functional
A549 [25] = assay: Induction of cell cycle arrest in human A549 cells assessed as accumulation at S phase at 13.6 uM incubated for 24 hrs by flow cytometry (reference value: 33.65%); assay type: functional
A549 [26] = assay: Induction of cell cycle arrest in human A549 cells assessed as accumulation at G0/G1 phase incubated for 24 hrs by flow cytometry; assay type: functional, cell-based
A549 [27] = assay: Induction of apoptosis in human A549 cells assessed as late apoptotic cells at 1.25 uM after 24 hrs by Annexin-V-FITC/propidium iodide staining based flow cytometric method (reference value: 1.40%); assay type: functional
A549 [28] = assay: Induction of ROS generation in human A549 cells incubated for 24 hrs by DCFH-DA staining-based flow cytometric analysis relative to control; assay type: functional, cell-based
A549 [29] = assay: Induction of apoptosis in human A549 cells assessed as late apoptotic cells at 5 uM after 24 hrs by Annexin-V-FITC/propidium iodide staining based flow cytometric method (reference value: 1.40%); assay type: functional
A549 [30] = assay: Induction of cell cycle arrest in human A549 cells assessed as accumulation at G2/M phase at 2.5 uM incubated for 24 hrs by flow cytometry (reference value: 10.38%); assay type: functional
A549 [31] = assay: Induction of apoptosis in human A549 cells assessed as early apoptotic cells at 2.5 uM after 24 hrs by Annexin-V-FITC/propidium iodide staining based flow cytometric method (reference value: 0.56%); assay type: functional
A549 [32] = assay: Induction of cell cycle arrest in human A549 cells assessed as accumulation at G2/M phase at 5 uM incubated for 24 hrs by flow cytometry (reference value: 10.38%); assay type: functional
A549 [33] = assay: induction of morphological changes in human A549 cells assessed as appearance of apoptotic bodies at 1.25 to 5 uM incubated for 24 hrs by DAPI-staining based microscopic method; assay type: functional, cell-based

DNA topoisomerase 2-alpha (Homo sapiens), sequence (P11388 whole entry): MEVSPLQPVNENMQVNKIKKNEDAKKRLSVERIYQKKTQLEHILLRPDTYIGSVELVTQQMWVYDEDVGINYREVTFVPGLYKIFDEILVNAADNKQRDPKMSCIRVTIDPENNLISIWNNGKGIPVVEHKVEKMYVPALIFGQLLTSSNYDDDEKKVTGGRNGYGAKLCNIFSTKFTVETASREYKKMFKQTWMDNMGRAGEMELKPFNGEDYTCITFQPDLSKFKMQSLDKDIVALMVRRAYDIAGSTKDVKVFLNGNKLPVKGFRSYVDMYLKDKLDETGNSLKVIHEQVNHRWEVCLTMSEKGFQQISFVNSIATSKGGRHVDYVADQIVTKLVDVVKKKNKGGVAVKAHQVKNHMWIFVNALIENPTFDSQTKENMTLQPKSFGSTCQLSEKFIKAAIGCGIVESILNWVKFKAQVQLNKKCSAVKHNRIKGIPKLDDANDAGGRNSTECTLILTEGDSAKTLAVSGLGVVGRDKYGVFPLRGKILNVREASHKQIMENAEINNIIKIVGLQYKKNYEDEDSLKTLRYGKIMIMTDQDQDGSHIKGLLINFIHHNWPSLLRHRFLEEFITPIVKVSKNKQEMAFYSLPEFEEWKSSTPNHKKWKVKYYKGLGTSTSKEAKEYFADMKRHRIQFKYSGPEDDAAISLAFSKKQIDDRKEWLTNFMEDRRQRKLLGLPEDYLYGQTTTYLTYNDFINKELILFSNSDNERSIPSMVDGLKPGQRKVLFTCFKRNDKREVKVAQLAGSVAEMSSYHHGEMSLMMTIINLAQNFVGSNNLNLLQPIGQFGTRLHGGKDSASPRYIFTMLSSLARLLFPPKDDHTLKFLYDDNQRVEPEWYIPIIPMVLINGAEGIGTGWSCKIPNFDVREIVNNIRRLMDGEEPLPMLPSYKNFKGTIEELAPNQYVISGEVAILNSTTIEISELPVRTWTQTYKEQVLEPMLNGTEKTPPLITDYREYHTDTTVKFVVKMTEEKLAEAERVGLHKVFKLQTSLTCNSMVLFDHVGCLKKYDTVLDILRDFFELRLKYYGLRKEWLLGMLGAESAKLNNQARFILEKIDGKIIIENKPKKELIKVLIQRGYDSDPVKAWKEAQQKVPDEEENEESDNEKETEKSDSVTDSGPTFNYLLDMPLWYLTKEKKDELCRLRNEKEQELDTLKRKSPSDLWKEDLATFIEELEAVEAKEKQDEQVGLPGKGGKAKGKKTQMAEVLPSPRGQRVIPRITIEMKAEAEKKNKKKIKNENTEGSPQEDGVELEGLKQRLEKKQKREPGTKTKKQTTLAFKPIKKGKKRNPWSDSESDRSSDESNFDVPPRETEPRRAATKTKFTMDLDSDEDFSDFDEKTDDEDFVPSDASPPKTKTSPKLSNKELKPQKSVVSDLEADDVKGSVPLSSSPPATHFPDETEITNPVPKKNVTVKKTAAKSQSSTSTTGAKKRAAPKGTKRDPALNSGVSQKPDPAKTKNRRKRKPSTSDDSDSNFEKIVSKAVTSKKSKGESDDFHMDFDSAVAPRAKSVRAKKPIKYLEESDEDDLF

SMILES: COc1cc(O)c2c(c1)[C@@H](O)[C@H]1C[C@H](C)OC=C1C2=O
IC50 (MCF7): > 40 µM | IC50 (A549 [1]): > 40 µM | IC50 (KB): > 40 µM

inhibition [22]: Active
SMILES: COc1cc(O)c2c(c1)C(=O)C1=C(C2=O)[C@H](OC[C@@H]2C(=O)CC[C@@H]2C)OC(C)=C1
Activity (A549 [2]): 69.15% | Activity (A549 [3]): 29.74% | Activity (A549 [4]): 66.37% | Activity (A549 [5]): Dose-dependent effect | Activity (A549 [6]): Active | Activity (A549 [7]): Dose-dependent effect | Activity (A549 [8]): 7.75% | Activity (A549 [9]): 44.81% | Activity (A549 [10]): 1.3% | Activity (A549 [11]): 2.15% | Activity (A549 [12]): 1.8% | Activity (A549 [13]): 33.31% | Activity (A549 [14]): 59.51% | Activity (A549 [15]): 0.73% | fold change (FC) (A549 [16]): 5 | Activity (A549 [17]): 2.69% | Activity (A549 [18]): 30.93% | Activity (A549 [19]): 7.18% | Activity (A549 [20]): 30.07% | Activity (A549 [21]): 6.79% | Activity (A549 [23]): 0.98% | Activity (A549 [24]): 5.02% | Activity (A549 [25]): 24.26% | Activity (A549 [26]): Dose-dependent effect | Activity (A549 [27]): 1.14% | Activity (A549 [28]): Dose-dependent effect | IC50 (MCF7): 1.3 µM | Activity (A549 [29]): 10.75% | IC50 (A549 [1]): 1.3 µM | IC50 (KB): 3 µM | Activity (A549 [30]): 3.56% | Activity (A549 [31]): 0.87% | Activity (A549 [32]): 1.11% | Activity (A549 [33]): Active

SMILES: COc1cc(O)c2c(c1)C(=O)c1c(coc1[C@H](C)O)C2=O
IC50 (MCF7): > 40 µM | IC50 (A549 [1]): > 40 µM | IC50 (KB): > 40 µM

SMILES: COc1cc(O)c2c(c1)C(=O)C1=C(C2=O)[C@](C)(OC)OCC1
IC50 (MCF7): 11.6 µM | IC50 (A549 [1]): 28.2 µM | IC50 (KB): 16.6 µM

SMILES: COc1cc(O)c2c(c1)[C@@H](O)[C@@H]1C[C@H](C)OC[C@H]1C2=O
IC50 (MCF7): > 40 µM | IC50 (A549 [1]): > 40 µM | IC50 (KB): > 40 µM

SMILES: COc1cc(O)c2c(c1)[C@H](O)[C@H](C)CC2=O
IC50 (MCF7): > 40 µM | IC50 (A549 [1]): > 40 µM | IC50 (KB): > 40 µM

SMILES: COc1cc(O)c2c(c1)[C@@H](O)[C@@H]1C[C@@H](C)OC[C@H]1C2=O
IC50 (MCF7): > 40 µM | IC50 (A549 [1]): > 40 µM | IC50 (KB): > 40 µM

SMILES: COc1cccc2c1C(=O)c1c(O)c3c(c(O)c1C2=O)C[C@@](O)(C(=O)CO)C[C@@H]3O[C@H]1C[C@H](N)[C@H](O)[C@H](C)O1 [DOXORUBICIN HYDROCHLORIDE]
IC50 (MCF7): 2.5 µM | IC50 (A549 [1]): 5 µM | IC50 (KB): 2.2 µM

SMILES: COc1cc(O)c2c(c1)C(=O)C1=C(C2=O)[C@@](C)(OC)OCC1
IC50 (MCF7): 11.6 µM | IC50 (A549 [1]): 28.2 µM | IC50 (KB): 16.6 µM

SMILES: COc1cc(O)c2c(c1)C(=O)C1=C(C2=O)C(O)OC(C)=C1 (stereo not given) [ASCOMYCONE B]
IC50 (MCF7): > 40 µM | IC50 (A549 [1]): > 40 µM | IC50 (KB): > 40 µM

SMILES: COc1cc(O)c2c(c1)C(=O)C(CC(C)=O)=C(C)C2=O
IC50 (MCF7): > 40 µM | IC50 (A549 [1]): > 40 µM | IC50 (KB): > 40 µM

Source: ChEMBL document CHEMBL4627395, “Cytotoxic Heptaketides from the Endolichenic Fungus Ulospora bilgramii” (J Nat Prod, 2020)
